Data published in patent publication US20140271767A1, “BIOCOMPATIBLE HYDROGEL POLYMER MATRIX FOR DELIVERY OF CELLS” (Medicus Biosciences LLC, priority 2013, published 2014).

Test: Drug elution from polymer (UV-Vis)
Type: physicochemical
Details: within the first three days; Nolvasan polymer, 2% chlorhexidine dose (50 mg), 2 mL PBS per 1 g polymer, 37° C.
Protocol: A Thermo Scientific GENESYS 10S UV-Vis spectrophotometer was used to quantify the release of various drugs from several polymers. First, the reference drug or drug solution was dissolved in an appropriate solvent. Typically, phosphate buffered saline (PBS), ethanol or dimethylsulfoxide (DMSO) were used as the solvent. Next, the optimal absorption peak for identifying and quantifying the drug was determined by performing a scan of the drug solution between 200 and 1000 nm. With the absorption peak selected, a reference curve was established by measuring the peak absorbance for various concentrations of the drug. […]
Elution samples were collected daily by decanting the PBS solution from the polymer. The volume of sample collected was recorded. […] The elution sample was analyzed by first diluting the sample in the appropriate solvent using analytical pipettes such that the measured absorbance was in the range determined by the reference curve. The dilution factor was recorded. The drug concentration was calculated from the measured absorbance via the reference curve and the dilution factor. The drug amount was calculated by multiplying the drug concentration with the sample volume. The percent elution for that day was calculated by dividing the drug amount by the total amount of drug administered. […]

- chlorhexidine released from polymer: Almost half
Compound: [H]/N=C(\N/C(=N/[H])NCCCCCCNC(=N)NC(=N)Nc1ccc(Cl)cc1)Nc1ccc(Cl)cc1 [chlorhexidine]
